In paper PMC9408991, “Antitumor Effects of a New Retinoate of the Fungal Cytotoxin Illudin M in Brain Tumor Models” (International Journal of Molecular Sciences, 2022):
Read-outs that look alike come from different tables or passages of the source.

Assays:
Assay type in all cases: cell-based
[1] = tested on: KBv1^+Vbl cervix carcinoma cells; assay: MTT cell viability assay, KBv1+Vbl cervix carcinoma; conditions: Homo sapiens, KB-V1/Vbl, read-out: Inhibitory concentration IC50
Description: (§1) 518A2 (Department of Radiotherapy, Medical University of Vienna, Vienna, Austria) melanoma, KB-V1^Vbl (ACC-149) cervix carcinoma, MCF-7^Topo (ACC-115) breast carcinoma, HT29 (ACC-299) colon carcinoma were cultivated in Dulbecco’s Modified Eagle Medium (DMEM) supplemented with 10% fetal bovine serum and 1% antibiotic-antimycotic at 37 °C, 5% CO2, and 95% humidity. To keep MCF-7^Topo and KB-V1^Vbl cells resistant, the maximum-tolerated doses of topotecan or vinblastine were added to the cell culture medium 24 h after every passage. The human HL60 leukemia cells were obtained from the German National Resource Center for Biological Material (DSMZ), Braunschweig. Neuroectodermal stem cells NE-4C (ATCC No. CRL-2925), primary mouse astrocytes, rat glioma C6 (ATCC No. CCL-107) and human glioma U87 (ATCC No. HTB-14) were used.
(§2) Non-GBM cells (5 × 10^4 cells/mL, 100 µL/well) were grown in 96-well plates for 24 h. […] After the addition of 12.5 µL of a 0.5% MTT solution in PBS, the cells were incubated for 3 h at 37 °C so that the water-soluble MTT could be converted to formazan crystals. Then, the plates were centrifuged (300× g, 5 min, 4 °C), the medium withdrawn, and the formazan dissolved in 25 µL of DMSO containing 10% sodium dodecylsulfate (SDS) and 0.6% acetic acid for at least 2 h at 37 °C. In the case of the HL60 cells, after 2 h, the precipitate of formazan crystals was redissolved in a 10% solution of SDS in DMSO containing 0.6% acetic acid.

primary astrocytes = assay: MTT cell viability assay, primary astrocytes; conditions: Mus musculus, Astrocyte, read-out: Inhibitory concentration IC50
Description: (§3) NE-4C cells derived from the anterior brain vesicles of p53-deficient 9-day-old mouse embryos were maintained in Minimum Essential Medium (MEM; Sigma Aldrich, Taufkirchen, Germany) supplemented with 5% fetal calf serum (FCS; Invitrogen-Gibco, Carlsbad, CA, USA), 4 mM glutamine (Sigma-Aldrich, Taufkirchen, Germany) and 40 ug/mL gentamycin (Chinoin, Budapest, Hungary). For maintenance, subconfluent cultures were regularly split by trypsinization (0.05 w/v% trypsin in PBS) into poly-L-lysine-coated Petri dishes. Primary astrocytes were isolated from whole brains of neonatal (P0-P3) mice, as described earlier. In brief, meninges were removed, and the tissue pieces were subjected to enzymatic dissociation, using 0.05% w/v trypsin and 0.05% w/v DNase for 10 min at room temperature. The cells were plated onto poly-L-lysine coated plastic surfaces and grown in MEM supplemented with 10% fetal calf serum, 4 mM glutamine and 40 ug/mL gentamycin. Primary neuronal cultures were prepared from embryonic (E15–E16) mouse (CD1) forebrains, as described earlier. In brief, cell suspensions were prepared by mechanical dissociation over a nylon mesh with a pore diameter of 40–42 μm. The cells were seeded at 10^5 cells/cm^2 density onto PLL-coated surfaces. The cultures were maintained in MEM supplemented with 5% FCS, 4 mM glutamine, 40 µg/mL gentamicin and 2.5 μg/mL amphotericin B (Sigma). In co-culture experiments, U87 glioma cells were seeded onto established neuronal cultures at DIV3 in a 25,000 cell/cm^2 density.
as §2

[2] = tested on: HT-29 colon carcinoma cells; assay: MTT cell viability assay, HT-29 colon carcinoma; conditions: Homo sapiens, read-out: Inhibitory concentration IC50
Description: as §1, §2

[3] = tested on: NE-4C neuroectodermal stem cells; assay: MTT cell viability assay, NE-4C neuroectodermal stem cells; conditions: Mus musculus, read-out: Inhibitory concentration IC50
Description: as §3, §2

[4] = tested on: NCH644^GFP+ glioma stem-like cells; assay: Ex vivo tumor growth assay on adult organotypic brain slice cultures
Text: For further investigation of drug efficacy and selectivity, an ex vivo tumor growth assay employing organotypic brain slice cultures of adult murine brains were used. For this purpose, GFP-expressing NCH644 (NCH644^GFP+) glioma stem-like cells were transplanted onto these slices, and after 1 day, the treatment was started and renewed three times per week, similar to our previous studies. These cultures are suitable ex vivo models, which simulate original brain architecture and the presence of vessels, including angiogenesis and microvascular proliferation as well as specific homing of GBM cells toward those vessels, while requiring much fewer laboratory animals when compared with common in vivo animal drug tests.
Adult organotypic brain slice culture was carried out as described previously. Briefly, the brains from adult C57BL/6 J (Envigo, Horst, The Netherlands) were dissected, and dura mater was removed after the mice were euthanized. Subsequently, mouse brains were placed in warm (35–40 °C) 2% low-melting agarose (Carl Roth, Karlsruhe, Germany) and cut on a Vibratome VT1000 (Leica, Wetzlar, Germany) in 150 µm thick sections. These sections were placed on Milli-cell culture inserts (Merck KGaA, Darmstadt, Germany) and cultured in 6-well plates using FCS-free medium consisting of DMEM/F12 supplied with 1× B27 and 1× N2 supplement and 100 U/mL penicillin and 100 µg/mL streptomycin (all from Gibco, Darmstadt, Germany). One day later, multiple spheres were placed on the mouse brain slices. Adequate spheres were prepared by seeding 275.000 NCH644^GFP+ cells in a total volume of 5 mL in a T25 flask. One day after sphere transplantation, pictures were taken (day 0), and the treatment was started, which was refreshed 3 times per week. Tumor growth was evaluated using FIJI, after which pictures were taken regularly with a Nikon SMZ25 stereomicroscope equipped with a P2-SHR Plan Apo 2 × objective operated by NIS elements software. As the tumor size was normalized to the size on day 0, growth curves were created.

primary neurons = assay: MTT cell viability assay, primary neurons; conditions: Mus musculus, Primary neuron, read-out: Inhibitory concentration IC50
Description: as §3, §2

[5] = 5 µM, treatment renewed three times per week

Structure (SMILES) | IC50 ([1]; 24 h exposure) | IC50 ([1]; 48 h exposure) | IC50 (primary astrocytes; 24 h exposure) | IC50 (primary astrocytes; 48 h exposure) | IC50 ([2]; HT-29, 24 h exposure) | IC50 ([2]; HT-29, 48 h exposure) | IC50 ([3]; 24 h exposure) | IC50 ([3]; 48 h exposure) | antitumor activity (tumor growth normalized to day 0) [4, 5] | antitumor activity (tumor growth normalized to day 0) ([4]; 0.1 and 0.5 µM) | toxicity in the tumor-free regions of the brain slices ([4]; organotypic brain slices) | IC50 (primary neurons; 24 h exposure) | IC50 (primary neurons; 48 h exposure)
CC1=C(/C=C/C(C)=C/C=C/C(C)=C/C(=O)O[C@@H]2C3=C(C)C4(CC4)[C@@](C)(O)C(=O)C3=CC2(C)C)C(C)(C)CCC1 [Compound 2, illudin M retinoate] | 1600 ± 400 nM | 1200 ± 100 nM | 45000 ± 2000 nM | 33000 ± 4000 nM | 38000 ± 4000 nM | 4000 ± 1300 nM | 7000 ± 3200 nM | 2000 ± 1200 nM | showed antitumor activity | significantly reduced | no signs of toxicity | 26000 ± 1000 nM | 14000 ± 2000 nM
CC1=C2C(=CC(C)(C)[C@@H]2O)C(=O)[C@](C)(O)C12CC2 [Compound 1, illudin M] | 3 ± 1 nM | 2 nM | 1500 ± 400 nM | 200 ± 30 nM | 1500 ± 600 nM | 60 ± 10 nM | 400 ± 100 nM | 50 ± 20 nM | showed antitumor activity |  |  | 600 ± 120 nM | 190 ± 40 nM
